From ChEMBL document CHEMBL1146351, “Synthesis and biological evaluation of thiazolidine-2-one 1,1-dioxide as inhibitors of Escherichia coli beta-ketoacyl-ACP-synthase III (FabH)” (Bioorg Med Chem Lett, 2007)
Values after ≈ are worked out from the molar mass of the structure shown. Active and inactive are the calls of the source. No cut-off for these calls is given here.

Key:
[1] = molecular target: T1, 3-oxoacyl-[acyl-carrier-protein] synthase 3 (Escherichia coli, UniProt C3TDZ2); experiment: Inhibition of Escherichia coli FabH
T1 sequence (C3TDZ2 whole entry): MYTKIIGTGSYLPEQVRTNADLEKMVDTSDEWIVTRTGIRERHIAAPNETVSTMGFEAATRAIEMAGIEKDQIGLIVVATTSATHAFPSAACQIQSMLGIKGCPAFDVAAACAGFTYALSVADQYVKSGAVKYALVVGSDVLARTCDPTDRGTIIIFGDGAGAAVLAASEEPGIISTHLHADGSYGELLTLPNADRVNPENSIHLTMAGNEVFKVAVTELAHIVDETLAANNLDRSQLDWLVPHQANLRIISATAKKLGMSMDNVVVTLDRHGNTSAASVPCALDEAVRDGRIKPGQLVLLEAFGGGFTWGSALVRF

Plasmodium falciparum = experiment: Antimalarial activity against Plasmodium falciparum D6; assay type: functional, organism-based
[2] = molecular target: T2, Mycobacterial beta-ketoacyl-[acyl-carrier-protein] synthase III (Mycobacterium tuberculosis) (UniProt P9WNG3); experiment: Inhibition of Mycobacterium tuberculosis FabH at 100 uM
T2 sequence (whole entry): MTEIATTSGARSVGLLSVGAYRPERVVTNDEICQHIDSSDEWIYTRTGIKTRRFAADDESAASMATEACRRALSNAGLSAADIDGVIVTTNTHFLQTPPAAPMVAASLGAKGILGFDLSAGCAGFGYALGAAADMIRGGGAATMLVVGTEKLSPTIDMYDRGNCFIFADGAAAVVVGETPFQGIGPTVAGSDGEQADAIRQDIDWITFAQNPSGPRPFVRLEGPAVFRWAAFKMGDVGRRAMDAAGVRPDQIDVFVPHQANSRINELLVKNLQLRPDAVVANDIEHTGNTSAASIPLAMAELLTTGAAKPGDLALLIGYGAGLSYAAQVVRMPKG

[3] = molecular target: T3, Beta-ketoacyl-ACP-synthase III (Plasmodium falciparum) (UniProt O77078); experiment: Inhibition of Plasmodium falciparum D6 KASIII at 100 uM
T3 sequence (whole entry): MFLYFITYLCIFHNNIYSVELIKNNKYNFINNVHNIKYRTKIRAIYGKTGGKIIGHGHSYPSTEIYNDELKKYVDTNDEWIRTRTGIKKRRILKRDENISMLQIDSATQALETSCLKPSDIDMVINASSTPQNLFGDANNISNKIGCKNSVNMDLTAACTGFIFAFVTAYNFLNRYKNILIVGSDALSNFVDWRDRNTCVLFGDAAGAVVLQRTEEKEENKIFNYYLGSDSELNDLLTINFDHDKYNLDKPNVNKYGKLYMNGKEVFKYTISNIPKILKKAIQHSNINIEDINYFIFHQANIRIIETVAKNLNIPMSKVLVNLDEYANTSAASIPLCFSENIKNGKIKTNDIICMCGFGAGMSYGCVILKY

Escherichia coli [4] = experiment: Antibacterial activity against Escherichia coli; assay type: functional
Escherichia coli [5] = experiment: Antibacterial activity against Escherichia coli expressing FabH; assay type: functional

SMILES | IC50 [1] [µM] | IC50 (Plasmodium falciparum) [µM] | Activity [2] | Activity [3] | MIC (Escherichia coli [4]) [µg/mL] | MIC (Escherichia coli [5]) [µg/mL]
CCCN1CCSC1=S | > 100 | > 100 | inactive | inactive | – | –
CCCN1CCS(=O)(=O)C1=O | > 100 | > 100 | inactive | inactive | – | –
O=C1N(Cc2ccc(Oc3ccc(C4CCCC4)cc3)cc2)CCS1(=O)=O | 2.4 | 10.8 | inactive | inactive | – | –
O=C1SCCN1Cc1ccc(Oc2ccccc2)cc1 | 10.9 | 67.1 | inactive | inactive | – | –
S=C1SCCN1Cc1ccc(Oc2ccc(C3CCCC3)cc2)cc1 | 17.7 | 5.3 | inactive | inactive | – | –
S=C1SCCN1Cc1cccnc1 | > 100 | 73.4 | inactive | inactive | – | –
O=C1N(Cc2ccc(Oc3ccccc3)cc2)CCS1(=O)=O | 0.9 | 49.4 | inactive | inactive | – | –
S=C1SCCN1Cc1ccc(Oc2ccccc2)cc1 | > 100 | 55.6 | inactive | inactive | – | –
O=C1SCCN1Cc1ccccc1 | 13.7 | 90.9 | inactive | inactive | – | –
CN1CCSC1=S | > 100 | > 100 | inactive | inactive | – | –
O=C1N(CCc2ccccc2)CCS1(=O)=O | 1.9 | 21.6 | inactive | inactive | 16.5 (≈ 69 µM) | –
S=C1SCCN1CCc1ccccc1 | > 100 | 55.5 | inactive | inactive | – | –
O=C1N(Cc2ccccc2)CCS1(=O)=O | 1.1 | 67.6 | inactive | inactive | 6.6 (≈ 29.3 µM) | 6.6 (≈ 29.3 µM)
O=C1SCCN1Cc1cccnc1 | 20.7 | 78.4 | inactive | inactive | – | –
O=C1SCCN1Cc1ccc(Oc2ccc(C3CCCC3)cc2)cc1 | 14.4 | 11.1 | inactive | inactive | – | –
S=C1SCCN1Cc1ccccc1 | > 100 | 61.6 | inactive | inactive | – | –
CN1CCS(=O)(=O)C1=O | > 100 | > 100 | inactive | inactive | – | –
